The structures appear in SMILES notation.

Holding throughout (format): in vivo
In series [1] the test system is Oxazolone-Induced Dermatitis Model in male C57BL/6 mice. Nature of the series: Repeat dose Oxazolone-Induced Dermatitis Model (Example 10). The protocol: Male C57BL/6 Mice (8-10 weeks) are used in the study. Mice are housed one per cage and are maintained at controlled environmental conditions with 12-h light and dark cycles. The temperature and humidity of the room are maintained between 22±3° C. and 55±5%, respectively. The maximum and minimum temperature and relative humidity in the experimental rooms are recorded once daily.
NCT10004 phosphate (adjusted with salt correction factor) is weighed into a clean glass container. 0.5% Methyl Cellulose (MC) is added, and the resulting mixture is mixed well using mild vortexing and stirred for 40 minutes to provide a homogeneous suspension.
PF-06372865 is weighed into a clean mortar. […]
Animals are dosed with respective treatment groups for fourteen consecutive Days (From Day 17-Day 30). To quantify any changes in the severity of skin lesions, Animals are assigned dermatitis scores prior to dosing and daily there after starting from Day 17 and ending on Day 30.
Skin lesion are observed and scored as follows: Hemorrhage/erythema, dryness/scaling and hyperplasia are scored as 0 (none), 1 (mild), 2 (moderate) or 3 (severe) once per day resulting in a composite score between 0 and 9. […]
Animals are observed by an observer blind to the treatment group for a period of 210 minutes post Oxazolone application. Number of scratching bouts directed to the nape between 15 to 210 min after dosing are recorded. […]

Series [2] relates to Oxazolone-induced Itch Model in Male C57BL/6 Mice. Put plainly: Oxazolone-induced dermatitis model of chronic itch (Example 7). The method, then:
In order to assess: the antipruritic effect of PF-06372865 in a clinically relevant disease, the development of a tolerance towards the antipruritic effect of PF-06372865, and the effect of PF-06372865 in reducing dermatitis after prolonged treatment, the oxazolone-induced dermatitis model of chronic itch is used. To this end, wild-type C57Bl/6 mice are treated with 100 μL of 10% oxazolone (4-Ethoxymethylene-2-phenyl-2-oxazolin-5-one) dissolved in acetone/olive oil (4:1) on the nape of the neck. From day 7 to day 31 these mice are treated every other day with 100 μL 1% oxazolone to induce and maintain dermatitis and chronic itch. From day 17 onward, mice are treated with intraperitoneal injection of vehicle or 10 mg/kg PF-06372865 for thirteen consecutive days. On day 31, mice are given either intraperitoneal injection of vehicle or PF-06372865 (10 mg/kg). The number of scratching bouts directed to the nape of the neck between 15 to 210 min after injection are recorded. […] This is independent of the treatment they received from day 7 to day 30. […] To quantify the severity of skin lesions, a dermatitis score are determined. Hemorrhage/erythema, dryness/scaring and hyperplasia (Yamada et. al. Exp Dermatol. 2016, 25, 611-617) are scored as 0 (none), 1 (mild), 2 (moderate) or 3 (severe) once per day resulting in a score between 0 and 9. […]

The subject of series [3] is Bile Acid Itch Model in Male C57BL/6 Mice. Put plainly: Bile acid (deoxycholic acid) induced itch model (Example 9). The following applies: 10 mg/kg oral gavage 90 min before deoxycholic acid (25 μg). The protocol: In order to assess the antipruritic effect of PF-06372865 in another clinically relevant disease, the bile acid induced itch model is used. In the bile acid induced itch model, the fur at the base of the neck is shaved, and mice are placed in individual cylinders on a glass shelf. Mice are acclimatized to the experimental room, restraint apparatus and investigators for 2-hour periods on 2 successive days before experiments. The mice are dosed with 10 mg/kg PF-06372865 by oral gavage ninety (90) minutes before they are injected with deoxycholic acid. Deoxycholic acid (25 μg in DMSO), is administered by intradermal injection at the nape of the neck. Scratching behavior is quantified by 2 observers unaware of tested agents. A scratch is defined as lifting the hind limb to the injection site and then a placing of the paw on the floor, regardless of the number of strokes. If counts differed by greater than 5 scratches over a 30-minute period, both observers reevaluate the records. The number of scratching bouts directed to the nape of the neck between 15 to 210 min after injection are recorded.

A further series has as its system Male C57BL/6 Mice. Put plainly: Sedation, behavioral change and clinical signs observed in Example 1. The method, then: Animals were dosed per oral with respective treatment group using a dose volume of 10 ml/kg. Times of dosing were recorded. Immediately after compound treatment, animals were kept in an empty transparent chamber (23 cm length×17 cm width) for acclimatization and observation.
Ninety (90) minutes post compound dosing, 50-μl of chloroquine phosphate solution (a 200-μg dose) was injected intracutaneously into the animal's right cheek. Animals were returned to the same chamber for observation. Animals were observed by an observer blind to the treatment group for a period of 30 minutes post chloroquine injection. Total number of bouts of scratching directed at the ipsilateral cheek were recorded for 30 minutes.

In the case of `CCn1cnc2c(-c3ccc(F)c(-c4ccc(S(=O)(=O)CC)cc4OC)c3)cnnc21` [PF-06372865], in series [1] (1 mg/kg BID PO, Day 17-Day 30), the “skin lesions (lesion score)” value is “decreases skin lesions comparable to the NCT10004”. In addition, the scratching bouts result in series [1] (1 mg/kg PO, 15-210 minutes) is “reduces scratching bouts”. In addition, the “skin lesions (dermatitis score)” value in series [2] (10 mg/kg intraperitoneal for thirteen consecutive days) was “significant reduction in skin lesions”. In addition, the “scratching bouts compared to vehicle injection” value in series [2] (10 mg/kg intraperitoneal on day 31, 15 to 210 min after injection) is on record as “significant reduction in scratching bouts”; in series [3], “significant reduction in scratching bouts”. Besides, the sedation entry was “Minimal sedation” with Male C57BL/6 Mice (3 mg/kg PO); “Dose dependent increase in sedation” in the series on Male C57BL/6 Mice (at 10 mg/kg and 30 mg/kg PO). For the same compound, in the series on Male C57BL/6 Mice (any of the PF-06372865 treatment groups (0.3-30 mg/kg PO)), the “other behavioral change or clinical sign” value is recorded as “No other behavioral change or clinical sign were observed”.
